No end group written: not given here.
Key:
P. aeruginosa ATCC27853 [1] = assay: MIC in the presence of physiological salts; type: cell-based, Pseudomonas aeruginosa; parameters: unit not given here
From the text: (§1) E. coli ATCC25922, P. aeruginosa ATCC27853, S. aureus ATCC29213, S. epidermidis ATCC12228, S. faecalis ATCC29212 and B. subtilis CMCC63501 were obtained from the College of Veterinary Medicine, Northeast Agricultural University (Harbin, China), E. coli K88, E. coli CVCC1515 and P. aeruginosa ATCC15442 were bestowed by Prof. J.H. Wang (Gene Engineering Laboratory, Feed Research Institute, Chinese Academy of Agricultural Sciences Beijing, China) and E. coli UB1005 was kindly provided by Prof. Q.S. Qi (State Key Laboratory of Microbial Technology, Shandong University, China). […] Briefly, 50 µl of approximate 0.5–1 × 10^6 colony forming units (CFU)/ml of cells were diluted in Mueller-Hinton broth and distributed to 96-well plate, 50 µl of twofold peptides were added and the plates was incubated at 37°C for 18–24 h. The MIC values were calculated as the lowest peptide concentration that prevented visible turbidity and negative control of the pure broth without microbes. The tests were performed at least three times in duplicate.
(§2) The stability of peptides was tested in the MIC assay in different environments, including salt sensitivity, human serum, thermal stability and susceptibility to enzymes. For salt sensitivity, 0.5–1 × 10^6 CFU/ml of P. aeruginosa ATCC27853 and E. coli ATCC25922 were treated with peptides, while different salts were added to MHB, and the final concentrations of physiological salts were as follows: 150 mM NaCl, 4.5 mM KCl, 1 mM MgCl2, 6 µM NH4Cl, 8 µM ZnCl2, 4 µM FeCl3 and […] [33]. Except salt sensitivity, only E. coli ATCC25922 was treated with peptides. […] For testing peptide sensitivity to the proteolytic enzymes, the peptides were incubated in advance at 37°C for 1 h with a 1 mg/ml final concentration of the proteolytic enzymes (trypsin, pepsin, papain and proteinase K). For testing thermal stability, incubation occurred at 100°C for 1 h. After these treatments, the procedures were same as MIC assay described above.

[2] = system: Gram-negative and Gram-positive strains; assay: MIC over all tested strains (range, geometric mean); type: cell-based; parameters: GM (geometric mean of MIC values from all microbial strains): unit not given here; settings: all strains of Table 2
From the text: as §1

E. coli ATCC25922 [3] = assay: MIC after treatment with serum, enzymes and heat; type: cell-based, Escherichia coli; settings: E. coli ATCC25922
From the text: as §1, §2

E. coli UB1005 [4] = assay: Cytoplasmic membrane electrical potential, diSC3-5; type: cell-based, Escherichia coli; settings: diSC3-5 release over 600 s
Experimental: Peptides could alter the electrical potential of cytoplasmic membrane, and this potential that was measured by using E. coli UB1005 cells and diSC3-5 (Sigma), a membrane potential-sensitive fluorescent dye, as previously described, [35]. E. coli UB1005 was cultured to logarithmic phase in MHB, harvested by centrifugation, washed twice with buffer (5 mM of HEPES and 20 mM of glucose, pH 7.4) and resuspended to an OD600 of 0.05 in the identical buffer. The dye (diSC3-5) was added to above buffer at a final concentration of 0.4 µM. And the bacteria were incubated to take up the dye for 90 min. KCl was added to a final concentration of 0.1 M for equilibrating K^+ concentration between extracellular and intracellular environment, and then the bacteria were incubated at room temperature for 10 min. The cell suspension (2 ml) was placed in a 1-cm cuvette, and the peptides were added to different concentrations. The fluorescence intensity changes were monitored by using an F-4500 fluorescence spectrophotometer (Hitachi, Japan) with an excitation wavelength of 622 nm and an emission wavelength of 670 nm.

E. coli ATCC25922 [5] = assay: MIC in the presence of physiological salts; type: cell-based, Escherichia coli; parameters: unit not given here
From the text: as §1, §2

E. coli K88 = settings: MHB, 37°C, 18-24 h, at least three times in duplicate
From the text: as §1

S. typhimurium ATCC14028 = settings: ATCC14028
From the text: as §1

E. coli CVCC1515 = settings: CVCC1515
From the text: as §1

E. coli ATCC25922 [6] = settings: ATCC25922
From the text: as §1

S.epidermidis ATCC12228 = settings: ATCC12228
From the text: as §1

S. pullorum C79-13 = settings: C79-13
From the text: as §1

S.aureus ATCC29213 = settings: ATCC29213
From the text: as §1

P. aeruginosa ATCC27853 [7] = settings: ATCC27853
From the text: as §1

P. aeruginosa variant 1 = settings: P. aeruginosa variant 1, obtained by step-wise culture with ciprofloxacin hydrochloride; MHB, 37°C, 18-24 h
From the text: as §1

S.faecalis ATCC29212 = settings: ATCC29212
From the text: as §1

P. aeruginosa variant 2 = settings: P. aeruginosa variant 2, obtained by step-wise culture with gentamicin; MHB, 37°C, 18-24 h
From the text: as §1

P. aeruginosa ATCC15442 = settings: ATCC15442
From the text: as §1

B. subtilis CMCC63501 = settings: CMCC63501
From the text: as §1

E. coli UB1005 [8] = settings: UB1005
From the text: as §1

[9] = system: human red blood cells (hRBC); assay: Hemolytic activity; type: cell-based; settings: pH 7.4
Experimental: The amount of released hemoglobin by the lysis of erythrocytes was measured for hemolytic activity of peptides. Human erythrocytes were obtained from a healthy donor with written informed consent. The experimental protocol was reviewed and approved by the ethics committee of the Northeast Agricultural University Hospital. The measurement was based on a previously described method. The fresh hRBCs were washed three times by centrifugation (1000 g, 5 min, 4°C) in PBS (pH 7.4), and then resuspended in PBS to obtain the erythrocyte with a dilution of approximately 1% (v/v). Then, 50 µL of hRBCs solution was incubated with 50 µL of different concentrations of the peptides dissolved in PBS for 1 h at 37°C, before centrifugation (1000 g, 5 min, 4°C) again. The absorbance of the supernatants was measured at optical density (OD) 492 nm. […] The control samples for 0% and 100% hemolysis consisted of hRBCs in PBS (Ablank) only and in 0.1% Triton X-100 (Atriton), respectively. The percentage of hemolysis was calculated according to the following equation: [drawing 3]

[10] = Circular dichroism, secondary structure; type: physicochemical; settings: 30 mM SDS micelles; 150 µM peptide
Experimental: The CD spectra were measured with a CD spectropolarimeter (Jasco, J-820, Tokyo, Japan) at 25°C, using a 0.1 cm path length rectangular quartz cell. The spectra were recorded at between 190 and 250 nm at 10 nm/min scanning speed. At least three scans were conducted for each peptide sample.
The acquired CD spectra were converted to the mean residue ellipticity through the following equation: [drawing 1]
where θM is the mean residue ellipticity [deg.cm2.dmol-1], θobs is the observed ellipticity corrected for the buffer at a given wavelength [mdeg], c is the peptide concentration [mM], l is the path length [mm], and n is the number of amino acids.
The percentage of α-helical structure was calculated as followings: [drawing 2]
where [θ]222 is the experimentally observed mean residue ellipticity at 222 nm, and values for [θ]^0 and [θ]^100 which correspond to 0 and 100% a-helix content at 222 nm, are estimated to be −2000 and −32000, respectively, [29].

[11] = all kinds of salts in physiological concentrations

Molecule: CC[C@H](C)[C@H](NC(=O)CN)C(=O)NCC(=O)N[C@@H](C)C(=O)N[C@H](C(=O)N[C@@H](CC(C)C)C(=O)N[C@@H](CCCCN)C(=O)N[C@H](C(=O)N[C@@H](CC(C)C)C(=O)N[C@H](C(=O)N[C@H](C(=O)NCC(=O)N[C@@H](CC(C)C)C(=O)N1CCC[C@H]1C(=O)N[C@@H](C)C(=O)N[C@@H](CC(C)C)C(=O)N[C@H](C(=O)N[C@@H](CO)C(=O)N[C@@H](Cc1c[nH]c2ccccc12)C(=O)N[C@H](C(=O)N[C@@H](CCCCN)C(=O)N[C@@H](CCCNC(=N)N)C(=O)N[C@@H](CCCCN)C(=O)N[C@@H](CCCNC(=N)N)C(=O)N[C@@H](CCC(N)=O)C(=O)N[C@@H](CCC(N)=O)C(N)=O)[C@@H](C)CC)[C@@H](C)CC)[C@@H](C)O)[C@@H](C)O)C(C)C)C(C)C [ME26, melittin, reference compound]
- MIC, CaCl2 (P. aeruginosa ATCC27853 [1]; 2.5 µM CaCl2 in MHB): 2
- MIC, FeCl3 (P. aeruginosa ATCC27853 [1]; 4 µM FeCl3 in MHB): 2
- MIC, NH4Cl (P. aeruginosa ATCC27853 [1]; 6 µM NH4Cl in MHB): 2
- MIC, ZnCl2 (P. aeruginosa ATCC27853 [1]; 8 µM ZnCl2 in MHB): 2
- MIC, MgCl2 (P. aeruginosa ATCC27853 [1]; 1 mM MgCl2 in MHB): 8
- MIC, KCl (P. aeruginosa ATCC27853 [1]; 4.5 mM KCl in MHB): 2
- MIC, NaCl (P. aeruginosa ATCC27853 [1]; 150 mM NaCl in MHB): 2
- MIC, Mix (P. aeruginosa ATCC27853 [1]; [11]): 16
- MIC, Control (P. aeruginosa ATCC27853 [1]; no added salts, unit not given): 2
- GM (geometric mean of MIC values from all microbial strains) [2]: 2.2
- MIC, Serum 25% (E. coli ATCC25922 [3]; 25% human serum in MHB): 8
- MIC, Serum 50% (E. coli ATCC25922 [3]; 50% human serum in MHB): 8
- MIC, Heat 100°C (E. coli ATCC25922 [3]; peptide incubated at 100°C for 1 h): 2
- MIC, Enzymes Caroid (E. coli ATCC25922 [3]; peptide pre-incubated 1 h at 37°C with 1 mg/ml enzyme (method names papain)): >128
- MIC, Enzymes Pepsin (E. coli ATCC25922 [3]; peptide pre-incubated 1 h at 37°C with 1 mg/ml pepsin): >128
- MIC, Enzymes Proteinase K (E. coli ATCC25922 [3]; peptide pre-incubated 1 h at 37°C with 1 mg/ml proteinase K): 32
- MIC, Enzymes Trypsin (E. coli ATCC25922 [3]; peptide pre-incubated 1 h at 37°C with 1 mg/ml trypsin): >128
- cytoplasmic membrane depolarization (in words) (E. coli UB1005 [4]): able to permeabilize the bacterial cell membrane even at a lower concentration than their MICs
- MIC, FeCl3 (E. coli ATCC25922 [5]; 4 µM FeCl3 in MHB): 2
- MIC, NH4Cl (E. coli ATCC25922 [5]; 6 µM NH4Cl in MHB): 2
- MIC, ZnCl2 (E. coli ATCC25922 [5]; 8 µM ZnCl2 in MHB): 4
- MIC, MgCl2 (E. coli ATCC25922 [5]; 1 mM MgCl2 in MHB): 4
- MIC, KCl (E. coli ATCC25922 [5]; 4.5 mM KCl in MHB): 2
- MIC, NaCl (E. coli ATCC25922 [5]; 150 mM NaCl in MHB): 4
- MIC, Mix (E. coli ATCC25922 [5]; [11]): 4
- MIC, CaCl2 (E. coli ATCC25922 [5]; in MHB): 2
- MIC, Control (E. coli ATCC25922 [5]; no added salts, unit not given): 2

Molecule: FRIRVRV-NH2 [FV7, reference compound]
- MIC (E. coli K88): 16 µM
- MIC (S. typhimurium ATCC14028): 16 µM
- MIC (E. coli CVCC1515): 32 µM
- MIC (E. coli ATCC25922 [6]): 16 µM
- MIC (S.epidermidis ATCC12228): 32 µM
- MIC (S. pullorum C79-13): 128 µM
- MIC (S.aureus ATCC29213): 64 µM
- MIC (P. aeruginosa ATCC27853 [7]): 16 µM
- MIC (P. aeruginosa variant 1): 8 µM
- MIC (S.faecalis ATCC29212): 32 µM
- MIC (P. aeruginosa variant 2): 16 µM
- MIC (P. aeruginosa ATCC15442): 16 µM
- MIC (B. subtilis CMCC63501): 16 µM
- MIC (E. coli UB1005 [8]): 32 µM
- MHC [9]: >256 µM
- GM (geometric mean of MIC values from all microbial strains) [2]: 29
- secondary structure (in words) [10]: β-sheet
